Measured values taken from patent US8324197B2, “Transplatinum complexes with N2O2 donor sets as cytotoxic and antitumor agents” (Virginia Commonwealth University, priority 2005, dated 2012).
Read-outs that look alike come from different tables or passages of the source. Marks after values point to notes of the source that are not given here.

What was measured:
[1] = cited from earlier work; for k1, first hydrolysis step to the monoaqua complex: analogous dichloride complexes, I=0.1 M
[2] = cited from earlier work; for k1, rate constant for the first aquation step: literature values of other platinum compounds
[3] = system: CH1; assay: Growth inhibition in human ovarian cancer cell line panel, 96 h exposure; type: cell-based; settings: for CH1 RF: RF = (IC50 Resistant)/(IC50 Sensitive)
Method: (§1) It is noteworthy that the acetate compounds maintain cytotoxicity with low resistance factors in all cases. The trans-[Pt(OAc)2(NH3)2] compound is also very water-soluble but the cytotoxicity of >100 μM confirms the requirement for a planar amine to enhance cytotoxicity in the trans geometry.

[4] = system: 41M; assay: as above; type: cell-based; settings: for 41M RF: RF = (IC50 Resistant)/(IC50 Sensitive)
Method: as §1

[5] = system: A2780; assay: as above; type: cell-based; settings: for A2780 RF: RF = (IC50 Resistant)/(IC50 Sensitive)
Method: as §1

[6] = pKa of corresponding TPA diaqua complexes by potentiometric titration with NaOH; type: physicochemical; settings: corresponding diaqua complex trans-[Pt(OH2)2(L)(L′)], ambient temperature
Method: (§2) The aqueous solubility of the acetate compounds and the acid dissociation constants of the corresponding aqua species are given in Table 1. Use of acetates enhances aqueous solubility which is dependent on the exact nature of the donor ligands. The pKa values were determined by potentiometric titration of solutions of trans-[Pt(H2O)2(L)(L′)]^2+ (formed by the dissolution of the isolated trans-[Pt(NO3)2(L)(L′)]) with NaOH. […] (X=2,3,4-Me).^30

[7] = system: ovarian cancer cell line panel; assay: Cytotoxicity in ovarian cancer cell line panel (cell line not specified); type: cell-based, human
Method: as §1

[8] = Aqueous solubility of TPA-acetate complexes (sequential addition of water); type: physicochemical; settings: ambient temperature
Method: as §2

[9] = corresponding diaqua complex; other compounds of the series 2-4c given for comparison (refs 11, 14); cited from earlier work
[10] = Initial hydrolysis of TPA carboxylates monitored by HPLC at 37° C.; type: physicochemical; settings: H2O; for k1, initial hydrolysis rate constant: I=0.02 M; for hydrolysis occurring after 9 h: HPLC
Method: The slowest initial hydrolysis rate was found for complex 2c t-[Pt(OAc)2(NH3)(2-pic)], with just 4% hydrolysis occurring after 9 h. The hydrolysis of the formate complex 4f was the fastest, with 24% hydrolysis occurring after 9 h. The hydrolysis rates of the acetate complexes followed the pattern 2c<4c<3c. […] Thus, hydrolysis of the acetate complexes is slowed by an approximate order of magnitude compared to their direct chloro analogs but there is little difference in the present case between 3- and 4-picoline. Steric hindrance therefore predominates over the electronic effects of the methyl group. In the case of the chloride complexes, the 3-pic directs less electron density to the platinum rendering it less nucleophilic relative to the 2-pic and 4-pic. 14 We observe the same trend in the acetate complexes, but the effect is lessened due to the carboxylate group being a weak ligand, with a low trans influence and trans effect.^11

[11] = Solubility of TPA carboxylates, Example 6; type: physicochemical; settings: aqueous; table title ambient temperature, text 37° C.
[12] = literature; cited from earlier work

Compound: N.N.[Cl][Pt][Cl] [Cisplatin, cis-[PtCl2(NH3)2], reference compound]
- hydrolysis rate ([1]; at 20° C., literature): 5.18e-05 s⁻¹
- k1, rate constant for the first aquation step [2]: 5.18e-05 s⁻¹
- IC50 [3]: 0.1 µM
- CH1 RF [3]: (6.7)
- IC50 [4]: 1.4 µM
- 41M RF [4]: (6.1)

Compound: Cc1ccccn1.N.[Cl][Pt][Cl] [2-pic]
- k1, first hydrolysis step to the monoaqua complex [1]: 2.6e-05 s⁻¹

Compound: Cc1cccnc1.N.[Cl][Pt][Cl] [3-pic]
- k1, first hydrolysis step to the monoaqua complex [1]: 0.000127 s⁻¹

Compound: trans-[diacetatobis(pyridine)platinum(II)] [trans-[Pt(OAc)2(py)2]]
- IC50 [3]: 19 µM
- CH1 RF [3]: (0.22)
- IC50 [5]: 12.8 µM
- A2780 RF [5]: (0.90)
- IC50 [4]: 14 µM
- 41M RF [4]: (0.32)

Compound: CC(=O)[O][Pt][O]C(C)=O.N.N [trans-[Pt(OAc)2(NH3)2]]
- pKa1 [6]: 4.0^b
- pKa2 [6]: 7.08
- IC50 [7]: > 100 µM
- Solubility [8]: 21 mg/mL

Compound: NCCNCCN.[Cl-].[Pt+2] [[PtCl(dien)]+]
- k1, rate constant for the first aquation step [2]: (6.50 ± 0.13) × 10^−5 s^−1

Compound: CC(=O)[O][Pt][O]C(C)=O.Cc1cccnc1.N [3c]
- pKa1 [9]: 3.97
- pKa2 [9]: 6.78
- k1, initial hydrolysis rate constant [10]: 3.52e-06 s⁻¹
- Solubility (mg/mL), TPA Acetates [11]: 11.4 mg/mL

Compound: Cc1ccncc1.N.[Cl][Pt][Cl] [4-pic]
- k1, first hydrolysis step to the monoaqua complex [1]: 5.2e-05 s⁻¹

Compound: Cc1ccncc1.N.O=C([O-])c1ccccc1.O=C([O-])c1ccccc1.[Pt+2] [4h, trans-[Pt(OBz)2(NH3)(4-pic)]]
- Solubility (mg/mL), TPA Substituted Carboxylates [11]: Insoluble

Compound: Cc1ccncc1.N.O=C([O-])C(F)(F)F.O=C([O-])C(F)(F)F.[Pt+2] [4g, trans-[Pt(Tfa)2(NH3)(4-pic)]]
- Solubility (mg/mL), TPA Substituted Carboxylates [11]: Insoluble

Compound: CCC[NH][Pt]([NH]CCC)([O]C(=O)CCl)[O]C(=O)CCl [cis-[Pt(PrNH2)2(ClCH2CO2)2]]
- rate constant of substitution by water of the first carboxylate ligand ([2]; cis carboxylate complex, literature): 4.38e-05 s⁻¹

Compound: trans-[Pt(OAcCl)2(NH3)(4-pic)] [4f]
- hydrolysis occurring after 9 h [10]: 24%
- Solubility (mg/mL), TPA Substituted Carboxylates [11]: 0.29 mg/mL

Compound: Cc1ccncc1.N.O=C(CO)[O][Pt][O]C(=O)CO [4d, trans-[Pt(OAcOH)2(NH3)(4-pic)]]
- k1, initial hydrolysis rate constant [10]: 5.61e-06 s⁻¹

Compound: CC(=O)[O-].CC(=O)[O-].Cc1ccccn1.N.[Pt+2] [2c, trans-[Pt(OAc)2(NH3)(2-pic)]]
- pKa1 [9]: 4.03
- pKa2 [9]: 7.1
- hydrolysis occurring after 9 h [10]: 4%
- k1, initial hydrolysis rate constant [10]: 1.07e-06 s⁻¹
- Solubility (mg/mL), TPA Acetates [11]: 10 mg/mL

Compound: N.N.[Cl][Pt+2][Cl] [Transplatin, trans-[PtCl2(NH3)2]]
- time to complete reaction with N-AcMet [12]: ≤ 5 h
- k1, rate constant for the first aquation step [2]: 0.00019 s⁻¹

Compound: [NH2][Pt]1([NH2])[O]C(=O)C2(CCC2)C(=O)[O]1 [Carboplatin, cis-[Pt(CBDCA)(NH3)2]]
- hydrolysis rate constant ([2]; aqueous solution): < 5e-09 s⁻¹
- k1, rate constant for the first aquation step [2]: <10^−8 s^−1
- hydrolysis rate ([2]; phosphate buffer at 310 K): 7.2e-07 s⁻¹

Compound: trans-[diacetato(ammine)(quinoline)platinum(II)] [trans-[Pt(OAc)2(NH3)(quin)]]
- IC50 [3]: 17 µM
- CH1 RF [3]: (0.48)
- IC50 [5]: 13 µM
- A2780 RF [5]: (1.46)
- IC50 [4]: 22 µM
- 41M RF [4]: (1.00)

Compound: CC(=O)[O][Pt][O]C(C)=O.Cc1ccncc1.N [4c]
- pKa1 [9]: 3.94
- pKa2 [9]: 6.88
- k1, initial hydrolysis rate constant [10]: 3.26e-06 s⁻¹
- Solubility (mg/mL), TPA Acetates [11]: 13.2 mg/mL
